The results in this text go back to PubChem BioAssay AID1963845 (Molecular Pharmacology Branch, DTP, NCI, 2024).

pIC50: −log10 of the molar value.
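Also: luminescence signal used as surrogate measure of viable cells; spheroids exposed to compounds for seven days before readout.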
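For viability, T/C in this document: 100% = DMSO vehicle control viability as luminescence relative to vehicle.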

The first assay concerns 429239-143-T-J1-PDC complex spheroid viability. The assay can be described thus: Anticancer human tumor 429239-143-T-J1-PDC patient-derived small cell lung carcinoma cell line growth inhibition [POLQ]. The settings on record: curve of first compound; second compound 10 µM. In short, it runs like this:
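PDC + HUVEC + MSC complex spheroids; POLQ inhibitors ± partner drugs; top conc. at/near clinical Cmax, else 10 microM (SN-38 1 microM), half-log dilutions; 37 degrees C, 5% CO2.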
For the compound `CC(C)n1c(=O)n(C)c2cnc3cc(F)c(-c4ccc(OCCCN5CCCCC5)nc4)cc3c21` + Cc1cccc(N(C)C(=O)C2C(O)CCN2c2nc(C)cc(C(F)(F)F)c2C#N)c1, the pIC50 (commonly −log10 of the IC50, conventionally taken in molar units) was under 5.00.
As for `CCc1cc2c(N3CCc4c(cc(Cn5ccnc5)cc4-c4cn(C)nc4C(F)(F)F)C3=O)cc(C)nc2c(OC)n1` + Cc1cccc(N(C)C(=O)C2C(O)CCN2c2nc(C)cc(C(F)(F)F)c2C#N)c1, the pIC50 was 5.33.
Still for that read-out and setting: the same measure for `CCc1cc2c(N3CCc4c(cc(Cn5ccnc5)cc4-c4cn(C)nc4C(F)(F)F)C3=O)ccnc2c(OC)n1` + Cc1cccc(N(C)C(=O)C2C(O)CCN2c2nc(C)cc(C(F)(F)F)c2C#N)c1: 5.07; for `COc1ccc([C@@H](O)c2cc(-c3ncnc4cc(N5CCOCC5)ccc34)c(F)cc2Cl)nn1` + Cc1cccc(N(C)C(=O)C2C(O)CCN2c2nc(C)cc(C(F)(F)F)c2C#N)c1: 5.60.

The same assay, now with this note: second compound 0.0316 µM; first compound 0.0316 µM; stronger effect = lower value.
Turning to `C=CC(=O)N1CCN(c2nc(=O)n(-c3c(C)ccnc3C(C)C)c3nc(-c4c(O)cccc4F)c(F)cc23)C(C)C1` (stereo unspecified) + Cc1cccc(N(C)C(=O)C2C(O)CCN2c2nc(C)cc(C(F)(F)F)c2C#N)c1, the viability, T/C (as a rule, the result in the treated group divided by that in the control group, in per cent) is 97.2%.
On the same count and under the same terms, the same measure for `CC(C)n1c(=O)n(C)c2cnc3cc(F)c(-c4ccc(OCCCN5CCCCC5)nc4)cc3c21` + Cc1cccc(N(C)C(=O)C2C(O)CCN2c2nc(C)cc(C(F)(F)F)c2C#N)c1: 104%.
`CCc1cc2c(N3CCc4c(cc(Cn5ccnc5)cc4-c4cn(C)nc4C(F)(F)F)C3=O)cc(C)nc2c(OC)n1` + Cc1cccc(N(C)C(=O)C2C(O)CCN2c2nc(C)cc(C(F)(F)F)c2C#N)c1: the viability, T/C is 110%.
On the same count and under the same terms, the same measure for `CCc1cc2c(N3CCc4c(cc(Cn5ccnc5)cc4-c4cn(C)nc4C(F)(F)F)C3=O)ccnc2c(OC)n1` + Cc1cccc(N(C)C(=O)C2C(O)CCN2c2nc(C)cc(C(F)(F)F)c2C#N)c1: 117%; for `COc1ccc([C@@H](O)c2cc(-c3ncnc4cc(N5CCOCC5)ccc34)c(F)cc2Cl)nn1` + Cc1cccc(N(C)C(=O)C2C(O)CCN2c2nc(C)cc(C(F)(F)F)c2C#N)c1: 103%.

Still in this assay, the particulars now being: second compound 0.0316 µM; first compound 0.1 µM; stronger effect = lower value.
Take `C=CC(=O)N1CCN(c2nc(=O)n(-c3c(C)ccnc3C(C)C)c3nc(-c4c(O)cccc4F)c(F)cc23)C(C)C1` (stereo unspecified) + Cc1cccc(N(C)C(=O)C2C(O)CCN2c2nc(C)cc(C(F)(F)F)c2C#N)c1: the viability, T/C was 85%.
On the same count and under the same terms, under `CC(C)n1c(=O)n(C)c2cnc3cc(F)c(-c4ccc(OCCCN5CCCCC5)nc4)cc3c21` + Cc1cccc(N(C)C(=O)C2C(O)CCN2c2nc(C)cc(C(F)(F)F)c2C#N)c1 stands 83%; under `CCc1cc2c(N3CCc4c(cc(Cn5ccnc5)cc4-c4cn(C)nc4C(F)(F)F)C3=O)cc(C)nc2c(OC)n1` + Cc1cccc(N(C)C(=O)C2C(O)CCN2c2nc(C)cc(C(F)(F)F)c2C#N)c1, 97.7%; under `CCc1cc2c(N3CCc4c(cc(Cn5ccnc5)cc4-c4cn(C)nc4C(F)(F)F)C3=O)ccnc2c(OC)n1` + Cc1cccc(N(C)C(=O)C2C(O)CCN2c2nc(C)cc(C(F)(F)F)c2C#N)c1, 102%.
As to `COc1ccc([C@@H](O)c2cc(-c3ncnc4cc(N5CCOCC5)ccc34)c(F)cc2Cl)nn1` + Cc1cccc(N(C)C(=O)C2C(O)CCN2c2nc(C)cc(C(F)(F)F)c2C#N)c1, the viability, T/C is 95.7%.

Staying with this assay, now noted: second compound 0.0316 µM; first compound 0.316 µM; stronger effect = lower value.
With `C=CC(=O)N1CCN(c2nc(=O)n(-c3c(C)ccnc3C(C)C)c3nc(-c4c(O)cccc4F)c(F)cc23)C(C)C1` (stereo unspecified) + Cc1cccc(N(C)C(=O)C2C(O)CCN2c2nc(C)cc(C(F)(F)F)c2C#N)c1, the viability, T/C was 102%.
In the case of `CC(C)n1c(=O)n(C)c2cnc3cc(F)c(-c4ccc(OCCCN5CCCCC5)nc4)cc3c21` + Cc1cccc(N(C)C(=O)C2C(O)CCN2c2nc(C)cc(C(F)(F)F)c2C#N)c1, the viability, T/C is 92.2%.
Same read-out and setting: under `CCc1cc2c(N3CCc4c(cc(Cn5ccnc5)cc4-c4cn(C)nc4C(F)(F)F)C3=O)cc(C)nc2c(OC)n1` + Cc1cccc(N(C)C(=O)C2C(O)CCN2c2nc(C)cc(C(F)(F)F)c2C#N)c1 stands 95%.
Still for that read-out and setting: under `CCc1cc2c(N3CCc4c(cc(Cn5ccnc5)cc4-c4cn(C)nc4C(F)(F)F)C3=O)ccnc2c(OC)n1` + Cc1cccc(N(C)C(=O)C2C(O)CCN2c2nc(C)cc(C(F)(F)F)c2C#N)c1 stands 98.2%; under `COc1ccc([C@@H](O)c2cc(-c3ncnc4cc(N5CCOCC5)ccc34)c(F)cc2Cl)nn1` + Cc1cccc(N(C)C(=O)C2C(O)CCN2c2nc(C)cc(C(F)(F)F)c2C#N)c1, 94.4%.

Still in this assay, the particulars now being: second compound 0.0316 µM; first compound 1 µM; stronger effect = lower value.
In the case of `C=CC(=O)N1CCN(c2nc(=O)n(-c3c(C)ccnc3C(C)C)c3nc(-c4c(O)cccc4F)c(F)cc23)C(C)C1` (stereo unspecified) + Cc1cccc(N(C)C(=O)C2C(O)CCN2c2nc(C)cc(C(F)(F)F)c2C#N)c1, the viability, T/C is 97.5%.
Same read-out and setting: the same measure for `CC(C)n1c(=O)n(C)c2cnc3cc(F)c(-c4ccc(OCCCN5CCCCC5)nc4)cc3c21` + Cc1cccc(N(C)C(=O)C2C(O)CCN2c2nc(C)cc(C(F)(F)F)c2C#N)c1: 78.4%; for `CCc1cc2c(N3CCc4c(cc(Cn5ccnc5)cc4-c4cn(C)nc4C(F)(F)F)C3=O)cc(C)nc2c(OC)n1` + Cc1cccc(N(C)C(=O)C2C(O)CCN2c2nc(C)cc(C(F)(F)F)c2C#N)c1: 85.6%.
Take `CCc1cc2c(N3CCc4c(cc(Cn5ccnc5)cc4-c4cn(C)nc4C(F)(F)F)C3=O)ccnc2c(OC)n1` + Cc1cccc(N(C)C(=O)C2C(O)CCN2c2nc(C)cc(C(F)(F)F)c2C#N)c1: the viability, T/C was 88.4%.
The same measure, in the same setting: under `COc1ccc([C@@H](O)c2cc(-c3ncnc4cc(N5CCOCC5)ccc34)c(F)cc2Cl)nn1` + Cc1cccc(N(C)C(=O)C2C(O)CCN2c2nc(C)cc(C(F)(F)F)c2C#N)c1 stands 70.4%.

Still in this assay, the particulars now being: second compound 0.0316 µM; first compound 3.16 µM; stronger effect = lower value.
Consider `C=CC(=O)N1CCN(c2nc(=O)n(-c3c(C)ccnc3C(C)C)c3nc(-c4c(O)cccc4F)c(F)cc23)C(C)C1` (stereo unspecified) + Cc1cccc(N(C)C(=O)C2C(O)CCN2c2nc(C)cc(C(F)(F)F)c2C#N)c1, for which the viability, T/C was 96%.
Still for that read-out and setting: the same measure for `CC(C)n1c(=O)n(C)c2cnc3cc(F)c(-c4ccc(OCCCN5CCCCC5)nc4)cc3c21` + Cc1cccc(N(C)C(=O)C2C(O)CCN2c2nc(C)cc(C(F)(F)F)c2C#N)c1: 78.8%.
